Like-named read-outs stand apart in the source and are kept apart here. Residues, ends and D or L forms follow the SMILES beside them. No end group written: not given here.
Legend:
[1] = test system: peripheral human lymphocytes; type: cell-based; conditions: for E-rosette number (%): cells blocked with α-amanitin = 0%, normal level without any addition = 100%, at optimum concentration; for Optimum concentr.: concentration giving the stated E-rosette number; for Relative number of E-rosettes (%): after inhibition with α-amanitin
Excerpt: (§1) The immunological test methods used were the E-rosette test according to Wara, Ammann et al. (N.Y. Acad. Sci. 249 (1975) 308 and N. Engl. J. Med. 292 (1975) 70) and the method of mixed lymphocyte culture, both methods involving additional inhibition of cellular RNS polymerase by alpha-amanitin. The E-rosette test is based on the fact that the percentage of E-rosette forming cells in peripheral human blood is a measure of the content of fully mature T-cells, which form with sheep's red blood cells characteristic aggregates which can be counted under the microscope.
For the performance of the E-rosette test, peripheral human lymphocytes are isolated by a gradient centrifugation. Their RNS polymerase is blocked by alpha-amanitin. […] This value is taken as 100% in a relative numerical scale, and after the Alpha-amanitin blockage it is taken to be 0%; see Table XII.

[2] = test system: human peripheral lymphocytes; type: cell-based; conditions: for stimulation (+) / inhibition (-) of mixed lymphocyte culture: 1 μg fragment per ml, not blocked, culture without addition = 0%; for Stimulation (%) of allogenic mixed culture: 1 microgram thymosin α1 per ml
Excerpt: as §1
The test in mixed lymophocyte cultures is based on the fact that T-cells are made to proliferate by stimulation with allogenic antigens. For the performance of the test, the lymphocytes of donor A ("responder") are incubated with those of donor B ("stimulator") for 4 to 5 days. Then ^3 H-thymidin is added and the rate of proliferation is measured on the basis of the increasing radioactivity of the cell culture due to the installation of the radioactive material. Since both populations A and B might be made to proliferate, resulting in an unclear effect, population B is blocked with mitomycin C in all metabolical activities. This test is routinely used before organ transplants to determine the immunological compatibility of donor and receiver tissues.

Molecule	E-rosette number (%) [1] [%]	Optimum concentr. [1] [μm]	stimulation (+) / inhibition (-) of mixed lymphocyte culture ([2]; cell pair AB)	stimulation (+) / inhibition (-) of mixed lymphocyte culture ([2]; cell pair CD)	stimulation (+) / inhibition (-) of mixed lymphocyte culture ([2]; cell pair DC)	further results
C[C@H](NC(=O)[C@@H](N)CCC(=O)O)C(=O)N[C@@H](CCC(=O)O)C(=O)N[C@@H](CC(N)=O)C(=O)O [V] (H-EAEN-OH)	42	113	+223%	+45%	+37%	
Ac-SDAAVDTSSEIT [IX]	40	4	-74%	-63%	-77%	
KDAAVD [Ia]	93	16	-8%	-73%	-31%	stimulation (+) / inhibition (-) of mixed lymphocyte culture ([2]; cell pair BA): -15%
KEVVEEAEN [VI]	16	10	+153%	+57%		
TKDLKEKKEVVEEAEN [VII]	41	6				
TSSEIT [II]	29	80		-53%	+30%	stimulation (+) / inhibition (-) of mixed lymphocyte culture ([2]; cell pair BA): -18%
thymosin α1 (SDAAVDTSSEITTKDLKEKKEVVEEAEN; ends and bridges not checked; UniProt P06454 2-29, looked up) [Thymosin (synthetic), parent substance, totally synthetic thymosin α1, 28 amino acids, analytically pure, reference compound]	100	1.6				Relative number of E-rosettes (%) ([1]; 0.25 μg per culture): 39%; Relative number of E-rosettes (%) ([1]; 0.50 μg per culture): 100%; Relative number of E-rosettes (%) ([1]; 1.00 μg per culture): 64%; Relative number of E-rosettes (%) ([1]; 2.50 μg per culture): 57%; Relative number of E-rosettes (%) ([1]; 5.00 μg per culture): 33%; Stimulation (%) of allogenic mixed culture ([2]; cell pair AB, culture inhibited with 1 microgram α-amanitin per ml): +86%; Stimulation (%) of allogenic mixed culture ([2]; cell pair AB, culture not inhibited, stimulator cells blocked with mitomycin): +20%; Stimulation (%) of allogenic mixed culture ([2]; cell pair AD, culture inhibited with 1 microgram α-amanitin per ml): +37%; Stimulation (%) of allogenic mixed culture ([2]; cell pair AD, culture not inhibited): +4%; Stimulation (%) of allogenic mixed culture ([2]; cell pair BA, culture inhibited with 1 microgram α-amanitin per ml): +47%; Stimulation (%) of allogenic mixed culture ([2]; cell pair BA, culture not inhibited): +27%; Stimulation (%) of allogenic mixed culture ([2]; cell pair BD, culture inhibited with 1 microgram α-amanitin per ml): +51%; Stimulation (%) of allogenic mixed culture ([2]; cell pair BD, culture not inhibited): +45%; Stimulation (%) of allogenic mixed culture ([2]; cell pair DA, culture inhibited with 1 microgram α-amanitin per ml): +0%; Stimulation (%) of allogenic mixed culture ([2]; cell pair DA, culture not inhibited): +44%; Stimulation (%) of allogenic mixed culture ([2]; cell pair DB, culture inhibited with 1 microgram α-amanitin per ml): +1550%; Stimulation (%) of allogenic mixed culture ([2]; cell pair DB, culture not inhibited): +27%

Source: patent US4910296A, “Medicaments containing alpha 1 thymosin fragments and having an immunostimulant action, and fragments of alpha 1 thymosin” (priority 1980, dated 1990)
